The record followed here is PubChem BioAssay (NCI).

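All cell lines were grown in 96-well plates and treated with compound for 48 hours. GI50: concentration for 50% inhibition of growth. TGI marks complete inhibition of growth.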 Where only a bound is given, the exact number is not on record here.

Among the test systems are SF-539 CNS; EKVX NSCLC; M14 melanoma; CCRF-CEM leukemia; SK-MEL-28 melanoma; IGROV1 ovarian; MOLT-4 leukemia; UACC-62 melanoma; OVCAR-5 ovarian; PC-3 prostate.
Holding throughout (assay): NCI tumour cell line growth inhibition, 48 h

In the case of `CCCCCCCCCCCC(=O)OC(COC(N)=O)COc1ccc(Cl)cc1` (stereo not drawn), the TGI came out at 66.4 µM with SF-539 CNS; 92.1 µM with EKVX NSCLC; 35 µM in the experiment on M14 melanoma; 35.9 µM in the experiment on CCRF-CEM leukemia; 36.2 µM in the experiment on SK-MEL-28 melanoma; 81.2 µM with IGROV1 ovarian. In addition, the TGI in the experiment on MOLT-4 leukemia worked out at 44.3 µM; in the experiment with UACC-62 melanoma, 41.3 µM.
For `Fc1ccc(-c2c(-c3ccncc3)[nH]c3nccnc23)cc1`, the GI50 with SF-539 CNS is 9.94 µM; in the experiment on M14 melanoma, over 18.7 µM; in the experiment on CCRF-CEM leukemia, 24.6 µM; in the experiment on SK-MEL-28 melanoma it was 16.2 µM; with IGROV1 ovarian, 16.2 µM; in the experiment with OVCAR-5 ovarian, 11.2 µM. In addition, the results for the GI50 in the experiment with PC-3 prostate, with MOLT-4 leukemia and in the experiment on UACC-62 melanoma were over 25 µM, over 25 µM and 6.33 µM, respectively. Further, the TGI in the experiment on SF-539 CNS, in the experiment on M14 melanoma, with CCRF-CEM leukemia, with SK-MEL-28 melanoma, in the experiment with IGROV1 ovarian and with OVCAR-5 ovarian was over 25 µM each time. Moreover, the TGI with PC-3 prostate, with MOLT-4 leukemia and in the experiment on UACC-62 melanoma was over 25 µM each time.
Turning to `N[C@@H](CSSC[C@H](N)C(=O)N1CCn2cc(-c3ccccc3)nc2[C@@H]1CC1CCCCC1)C(=O)N1CCn2cc(-c3ccccc3)nc2[C@@H]1CC1CCCCC1`, the GI50 is 1.75 µM in the experiment on SF-539 CNS; 1.34 µM in the experiment on EKVX NSCLC; 0.301 µM with M14 melanoma; 0.529 µM with SK-MEL-28 melanoma; 2.41 µM in the experiment on IGROV1 ovarian; 2.23 µM in the experiment on OVCAR-5 ovarian. Also, the GI50 in the experiment with PC-3 prostate was 2.91 µM; with MOLT-4 leukemia it was 1.74 µM; in the experiment with UACC-62 melanoma it was 0.843 µM. The TGI in the experiment on SF-539 CNS is 3.55 µM; in the experiment with EKVX NSCLC, 2.81 µM; in the experiment with M14 melanoma it was 1.23 µM; with SK-MEL-28 melanoma, 1.96 µM; with IGROV1 ovarian, 5.96 µM; in the experiment with OVCAR-5 ovarian it was 6.39 µM. Besides, the TGI is 9.62 µM in the experiment on PC-3 prostate, over 21.4 µM in the experiment on MOLT-4 leukemia and 2.32 µM in the experiment with UACC-62 melanoma.
Consider `NCC1(N2CCOCC2)C2CCCC21CNc1ccccc1` (stereo not drawn), for which the TGI with SF-539 CNS, in the experiment with M14 melanoma, with CCRF-CEM leukemia, in the experiment on SK-MEL-28 melanoma, in the experiment on IGROV1 ovarian and with OVCAR-5 ovarian was over 100 µM throughout. Moreover, the TGI in the experiment on MOLT-4 leukemia and in the experiment on UACC-62 melanoma was over 100 µM each time.
Turning to `NC(=O)c1ncn(Cc2ccccc2)c1CNC(N)=S`, the TGI with SF-539 CNS, in the experiment with EKVX NSCLC, in the experiment with M14 melanoma, with CCRF-CEM leukemia, in the experiment with SK-MEL-28 melanoma and in the experiment on IGROV1 ovarian was over 100 µM throughout. The TGI with OVCAR-5 ovarian, in the experiment with MOLT-4 leukemia and with UACC-62 melanoma was over 100 µM each time.
Take `O=C(/C=C/c1ccc(O)cc1)c1cc(Cl)ccc1O`: the TGI is 44.9 µM in the experiment on SF-539 CNS; over 100 µM in the experiment with EKVX NSCLC; over 100 µM in the experiment on M14 melanoma; 44.8 µM in the experiment with CCRF-CEM leukemia; over 100 µM with SK-MEL-28 melanoma; over 100 µM with IGROV1 ovarian. The TGI is 55.8 µM in the experiment with MOLT-4 leukemia and over 100 µM in the experiment on UACC-62 melanoma.
With `O=C1c2ccccc2C(=O)c2c1ccc1c2N=C(c2ccc(Br)cc2)CC(c2cccc3ccccc23)N1` (stereo not drawn), the TGI in the experiment on SF-539 CNS, in the experiment on EKVX NSCLC, in the experiment with M14 melanoma, with CCRF-CEM leukemia, with SK-MEL-28 melanoma and in the experiment on IGROV1 ovarian was over 100 µM in each case. Further, the TGI in the experiment with OVCAR-5 ovarian and in the experiment on UACC-62 melanoma was over 100 µM throughout.
As to `Cn1cnc([N+](=O)[O-])c1Sc1nc2ccc([N+](=O)[O-])cc2[nH]1`, the TGI in the experiment on SF-539 CNS was 44 µM; in the experiment with EKVX NSCLC it was 46.7 µM; with M14 melanoma, over 100 µM; in the experiment on CCRF-CEM leukemia it was 81.1 µM; in the experiment with SK-MEL-28 melanoma it was 37.6 µM; in the experiment on IGROV1 ovarian it was 58.6 µM. Further, the TGI in the experiment with OVCAR-5 ovarian was over 100 µM; in the experiment on MOLT-4 leukemia, 47.7 µM; in the experiment with UACC-62 melanoma it was 28.2 µM.
As for `CC1CC(c2ccc(Cl)c(Cl)c2)=Nc2ccccc2S1` (stereo not drawn), the TGI with SF-539 CNS, in the experiment on EKVX NSCLC, with M14 melanoma, in the experiment on CCRF-CEM leukemia, with SK-MEL-28 melanoma and in the experiment on IGROV1 ovarian was over 100 µM each time. Further, the TGI in the experiment on OVCAR-5 ovarian, in the experiment on MOLT-4 leukemia and with UACC-62 melanoma was over 100 µM throughout.
Take `C#Cc1ccc(-n2c(/C=C/c3ccc4ccccc4c3)nc3ncccc3c2=O)cc1`: the GI50 with SF-539 CNS was 2.91 µM; in the experiment with CCRF-CEM leukemia, 1.53 µM; in the experiment on SK-MEL-28 melanoma it was 4.33 µM; with IGROV1 ovarian it was 2.92 µM; in the experiment with OVCAR-5 ovarian, 6.88 µM; with PC-3 prostate, 2.35 µM. In addition, the GI50 was 2 µM in the experiment with MOLT-4 leukemia and 2.49 µM with UACC-62 melanoma. The TGI in the experiment with SF-539 CNS, in the experiment with CCRF-CEM leukemia, in the experiment on SK-MEL-28 melanoma, in the experiment with IGROV1 ovarian, in the experiment on OVCAR-5 ovarian and in the experiment with PC-3 prostate was over 100 µM each time. Moreover, the TGI in the experiment with MOLT-4 leukemia and in the experiment with UACC-62 melanoma was over 100 µM throughout.
Turning to `CC1(C)CC(N2CCN(C3CC(C)(C)NC(C)(C)C3)CC2)CC(C)(C)N1`, the TGI in the experiment with SF-539 CNS, in the experiment with EKVX NSCLC, with M14 melanoma, in the experiment with CCRF-CEM leukemia, in the experiment on SK-MEL-28 melanoma and with IGROV1 ovarian was over 100 µM throughout. In addition, the TGI in the experiment on OVCAR-5 ovarian, in the experiment with MOLT-4 leukemia and in the experiment with UACC-62 melanoma was over 100 µM throughout.
On to `N#Cc1cn(-c2c3ccccc3nc3ccccc23)c(=O)[nH]c1=O`, for which the TGI in the experiment with SF-539 CNS is 7.71 µM; in the experiment with EKVX NSCLC, 38.1 µM; in the experiment on M14 melanoma, 28.5 µM; with CCRF-CEM leukemia it was 41.7 µM; with SK-MEL-28 melanoma it was 31.4 µM; in the experiment with IGROV1 ovarian it was 71.8 µM. The TGI in the experiment on OVCAR-5 ovarian came to 32.9 µM; with MOLT-4 leukemia it was 22.6 µM; in the experiment on UACC-62 melanoma, 38.8 µM.
`Cc1ccc2nc3c(C)cc(=O)cc-3sc2c1`: the TGI in the experiment on SF-539 CNS was 42.6 µM; in the experiment with EKVX NSCLC it was 66.4 µM; with M14 melanoma, 42.4 µM; in the experiment on CCRF-CEM leukemia, 33.1 µM; in the experiment on SK-MEL-28 melanoma, 73 µM; in the experiment on IGROV1 ovarian, over 100 µM. Also, the TGI amounted to 61 µM in the experiment with OVCAR-5 ovarian, 38.9 µM in the experiment on MOLT-4 leukemia and 29 µM in the experiment on UACC-62 melanoma.
